Source: PubChem BioAssay AID1259407 (Chemical Carcinogenesis Research Information System (CCRIS), 2018)
Activity calls are given as the source filed them. No rule for the calls is given here.

Test system: CCRIS mutagenicity, Ames/micronucleus/aberration tests
Test: CCRIS mutagenicity studies
[1] = Test System: AMES SALMONELLA TYPHIMURIUM, Strain/Indicator: TA98, Metabolic Activation: NONE, Method: PREINCUBATION
[2] = Test System: AMES SALMONELLA TYPHIMURIUM, Strain/Indicator: TA100, Metabolic Activation: NONE, Method: PREINCUBATION
[3] = Test System: AMES SALMONELLA TYPHIMURIUM, Strain/Indicator: TA1537, Metabolic Activation: NONE, Method: STANDARD PLATE
[4] = Test System: AMES SALMONELLA TYPHIMURIUM, Strain/Indicator: TA98, Metabolic Activation: NONE, Method: STANDARD PLATE
[5] = Test System: AMES SALMONELLA TYPHIMURIUM, Strain/Indicator: TA100, Metabolic Activation: NONE, Method: STANDARD PLATE

Measured: mutagenic call

CC[C@H](C)[C@@H]1NC(=O)[C@H](CCCNC(=N)N)NC(=O)[C@H](CC(=O)O)NC(=O)[C@H](CCSC)NC(=O)[C@H](CCCNC(=N)N)NC(=O)CNC(=O)CNC(=O)[C@H](Cc2ccccc2)NC(=O)[C@@H](NC(=O)[C@H](CO)NC(=O)[C@H](CO)NC(=O)[C@H](CCCNC(=N)N)NC(=O)[C@H](CCCNC(=N)N)NC(=O)[C@H](CC(C)C)NC(=O)[C@@H](N)CO)CSSC[C@@H](C(=O)N[C@@H](CC(N)=O)C(=O)N[C@@H](CO)C(=O)N[C@@H](Cc2ccccc2)C(=O)N[C@@H](CCCNC(=N)N)C(=O)N[C@@H](Cc2ccc(O)cc2)C(=O)O)NC(=O)CNC(=O)[C@H](CC(C)C)NC(=O)CNC(=O)[C@H](CO)NC(=O)[C@H](CCC(N)=O)NC(=O)[C@H](C)NC(=O)CNC1=O
inactive: [1] inactive; negative | Test System: AMES SALMONELLA TYPHIMURIUM, Strain/Indicator: TA98, Metabolic Activation: S-9, Method: PREINCUBATION inactive; negative | [2] inactive; negative | Test System: AMES SALMONELLA TYPHIMURIUM, Strain/Indicator: TA100, Metabolic Activation: S-9, Method: PREINCUBATION inactive; negative | Test System: AMES SALMONELLA TYPHIMURIUM, Strain/Indicator: TA1535, Metabolic Activation: NONE, Method: PREINCUBATION inactive; negative | Test System: AMES SALMONELLA TYPHIMURIUM, Strain/Indicator: TA1535, Metabolic Activation: S-9, Method: PREINCUBATION inactive; negative | Test System: AMES SALMONELLA TYPHIMURIUM, Strain/Indicator: TA1537, Metabolic Activation: NONE, Method: PREINCUBATION inactive; negative | Test System: AMES SALMONELLA TYPHIMURIUM, Strain/Indicator: TA1537, Metabolic Activation: S-9, Method: PREINCUBATION inactive; negative | Test System: E. COLI, Strain/Indicator: WP2 UVRA, Metabolic Activation: NONE, Method: PREINCUBATION inactive; negative | Test System: E. COLI, Strain/Indicator: WP2 UVRA, Metabolic Activation: S-9, Method: PREINCUBATION inactive; negative

Cc1c(N)nc([C@H](CC(N)=O)NC[C@H](N)C(N)=O)nc1C(=O)N[C@H](C(=O)N[C@H](C)[C@@H](O)[C@H](C)C(=O)N[C@H](C(=O)NCCc1nc(-c2nc(C(=O)NCCCN[C@@H](C)c3ccccc3)cs2)cs1)[C@@H](C)O)[C@@H](O[C@@H]1O[C@@H](CO)[C@@H](O)[C@H](O)[C@@H]1O[C@H]1O[C@H](CO)[C@@H](O)[C@H](OC(N)=O)[C@@H]1O)c1cnc[nH]1
active: Test System: AMES SALMONELLA TYPHIMURIUM, Strain/Indicator: TA102, Metabolic Activation: NONE, Method: STANDARD PLATE active; positive
inactive: [3] inactive; negative

Nc1ccc2cc(S(=O)(=O)O)cc(O)c2c1N=Nc1ccc([N+](=O)[O-])cc1S(=O)(=O)O
inactive: [4] inactive; negative | Test System: AMES SALMONELLA TYPHIMURIUM, Strain/Indicator: TA98, Metabolic Activation: RAT, LIVER, S-9, PHENOBARBITAL, Method: STANDARD PLATE inactive; negative | [5] inactive; negative | Test System: AMES SALMONELLA TYPHIMURIUM, Strain/Indicator: TA100, Metabolic Activation: RAT, LIVER, S-9, PHENOBARBITAL, Method: STANDARD PLATE inactive; negative

C#CC1(O)CC[C@H]2[C@@H]3CCC4=CCCC[C@@H]4[C@H]3CC[C@@]21C (some centres undefined)
active: End Point: IN VIVO CHROMOSOMAL ABERRATIONS, Test System: BONE MARROW CELLS, Species: MOUSE, Strain/Sex: SWISS ALBINO/FEMALE, Route: IP INJECTION active; positive (structural changes)

CCCc1cc2ccccc2c2ccc3c(c12)C1OC1C(O)C3O (centres undefined)
inactive: [2] inactive; negative

Cc1ccc(S(=O)(=O)Oc2ccc(N=Nc3ccc(-c4ccc(N=Nc5c(S(=O)(=O)O)cc6cc(S(=O)(=O)O)ccc6c5O)cc4C)c(C)c3)cc2)cc1
inactive: Test System: AMES SALMONELLA TYPHIMURIUM, Strain/Indicator: TA98, Metabolic Activation: HAMSTER, LIVER, S-9, Method: PREINCUBATION (PRIVAL METHOD) inactive; negative

CO[C@@]12[C@H](CO)C3=C(C(=O)C(C)=C(N)C3=O)N1C[C@@H]1N[C@@H]12
active: Test System: CHINESE HAMSTER V-79, Strain/Indicator: V-79/6-THIOGUANINE, Metabolic Activation: NONE, Method: FLASK ASSAY active; positive

Cc1ccc(C)c2c1c1ccccc1n2C
inactive: [4] inactive; negative | [5] inactive; negative
active: Test System: AMES SALMONELLA TYPHIMURIUM, Strain/Indicator: TA98, Metabolic Activation: RAT LIVER S-9, AROCLOR 1254, Method: STANDARD PLATE active; positive | Test System: AMES SALMONELLA TYPHIMURIUM, Strain/Indicator: TA100, Metabolic Activation: RAT LIVER S-9, AROCLOR 1254, Method: STANDARD PLATE active; positive

[Be]=[O]
inactive: [1] inactive; negative | Test System: AMES SALMONELLA TYPHIMURIUM, Strain/Indicator: TA98, Metabolic Activation: RAT, LIVER, S-9 (10%), Method: PREINCUBATION inactive; negative | [2] inactive; negative | Test System: AMES SALMONELLA TYPHIMURIUM, Strain/Indicator: TA100, Metabolic Activation: RAT, LIVER, S-9 (10%), Method: PREINCUBATION inactive; negative

N[C@@H](CCC(=O)NNc1ccccc1)C(=O)O
active: Test System: AMES SALMONELLA TYPHIMURIUM, Strain/Indicator: TA100, Metabolic Activation: RAT KIDNEY, MICROSOMES, Method: STANDARD PLATE active; positive
inactive: [5] inactive; negative | Test System: AMES SALMONELLA TYPHIMURIUM, Strain/Indicator: TA100, Metabolic Activation: RAT LIVER, MICROSOMES, Method: STANDARD PLATE inactive; negative

NC(=O)N(CCBr)N=O
active: Test System: E. COLI B, Strain/Indicator: H/R30R, Metabolic Activation: NONE active; positive | Test System: E. COLI B, Strain/Indicator: HS30R, Metabolic Activation: NONE active; positive

C[Si](C)(C)N[Si](C)(C)C
inactive: Test System: AMES SALMONELLA TYPHIMURIUM, Strain/Indicator: TA98, Metabolic Activation: HAMSTER, LIVER, S-9, AROCLOR 1254 (10%), Method: STANDARD PLATE inactive; negative | [4] inactive; negative | Test System: AMES SALMONELLA TYPHIMURIUM, Strain/Indicator: TA98, Metabolic Activation: RAT, LIVER, S-9, AROCLOR 1254 (10%), Method: STANDARD PLATE inactive; negative | Test System: AMES SALMONELLA TYPHIMURIUM, Strain/Indicator: TA100, Metabolic Activation: HAMSTER, LIVER, S-9, AROCLOR 1254 (10%), Method: STANDARD PLATE inactive; negative | [5] inactive; negative | Test System: AMES SALMONELLA TYPHIMURIUM, Strain/Indicator: TA100, Metabolic Activation: RAT, LIVER, S-9, AROCLOR 1254 (10%), Method: STANDARD PLATE inactive; negative | Test System: AMES SALMONELLA TYPHIMURIUM, Strain/Indicator: TA1535, Metabolic Activation: HAMSTER, LIVER, S-9, AROCLOR 1254 (10%), Method: STANDARD PLATE inactive; negative | Test System: AMES SALMONELLA TYPHIMURIUM, Strain/Indicator: TA1535, Metabolic Activation: NONE, Method: STANDARD PLATE inactive; negative | Test System: AMES SALMONELLA TYPHIMURIUM, Strain/Indicator: TA1535, Metabolic Activation: RAT, LIVER, S-9, AROCLOR 1254 (10%), Method: STANDARD PLATE inactive; negative | Test System: AMES SALMONELLA TYPHIMURIUM, Strain/Indicator: TA1537, Metabolic Activation: HAMSTER, LIVER, S-9, AROCLOR 1254 (10%), Method: STANDARD PLATE inactive; negative | [3] inactive; negative | Test System: AMES SALMONELLA TYPHIMURIUM, Strain/Indicator: TA1537, Metabolic Activation: RAT, LIVER, S-9, AROCLOR 1254 (10%), Method: STANDARD PLATE inactive; negative | Test System: AMES SALMONELLA TYPHIMURIUM, Strain/Indicator: TA1538, Metabolic Activation: HAMSTER, LIVER, S-9, AROCLOR 1254 (10%), Method: STANDARD PLATE inactive; negative | Test System: AMES SALMONELLA TYPHIMURIUM, Strain/Indicator: TA1538, Metabolic Activation: NONE, Method: STANDARD PLATE inactive; negative | Test System: AMES SALMONELLA TYPHIMURIUM, Strain/Indicator: TA1538, Metabolic Activation: RAT, LIVER, S-9, AROCLOR 1254 (10%), Method: STANDARD PLATE inactive; negative | Test System: MOUSE LYMPHOMA, Strain/Indicator: L5178Y (TK+/TK-), Metabolic Activation: NONE, Method: SUSPENSION/PLATE inactive; negative. reevaluation of results: inconclusive
